In PMC11432087, “Hydrogen Sulfide-Releasing Carbonic Anhydrase Inhibitors Effectively Suppress Cancer Cell Growth” (International Journal of Molecular Sciences, 2024):
Read-outs that look alike come from different tables or passages of the source.

Tests used:
[1] = Spectrophotometric methylene blue H2S release in phosphate buffer with or without thiols; details: 37 °C, with or without L-cysteine or glutathione
[2] = compound 150 µM, rat liver homogenate, 37 °C; cited from earlier work
hCA IV [3] = experiment: Stopped-flow CO2 hydrase inhibition assay, hCA IV; assay type: biochemical, human; details: ratio of KIs
Method: (§1) An Applied Photophysics stopped-flow instrument (Applied Photophysics Ltd, Leatherhead, UK) was used for assaying the CA-catalyzed CO2 hydration activity. Phenol red (at a concentration of 0.2 mM) was used as an indicator, working at the absorbance maximum of 557 nm, with 20 mM Hepes (pH 7.5) as a buffer and 20 mM Na2SO4 for maintaining constant the ionic strength, following the initial rates of the CA-catalyzed CO2 hydration reaction for a period of 10−100 s. The CO2 concentrations ranged from 1.7 to 17 mM for the determination of the kinetic parameters and inhibition constants. For each inhibitor, at least six traces of the initial 5−10% of the reaction were used for determining the initial velocity. The uncatalyzed rates were determined in the same manner and subtracted from the total observed rates. Stock solutions of inhibitor (0.1 mM) were prepared in distilled−deionized water and dilutions up to 0.01 nM were made thereafter with the assay buffer. Inhibitor and enzyme solutions were preincubated together for 15 min at room temperature before the assay to allow for the formation of the E−I complex. The inhibition constants were obtained by nonlinear least-squares methods using Prism 7 (GraphPad Software, La Jolla, CA, USA) and the Cheng−Prusoff equation and represent the mean of at least three different determinations. The enzyme concentrations were in the range of 3–11 nM. All hCA isoforms were recombinant ones obtained in-house.

hCA IX [4] = experiment: Stopped-flow CO2 hydrase inhibition assay, hCA IX; assay type: biochemical, human; details: ratio of KIs
Method: as §1

hCA XII [5] = experiment: Stopped-flow CO2 hydrase inhibition assay, hCA XII; assay type: biochemical, human; details: ratio of KIs
Method: as §1

MDA-MB-231 = experiment: MTT antiproliferative assay, MDA-MB-231; assay type: cell-based; details: Homo sapiens, normoxic conditions, 72 h
Method: (§2) These cell lines were cultured as monolayers in Dulbecco’s Modified Eagle’s Medium (DMEM) supplemented with 10% FBS, 2 mM l-glutamine, 100 U/mL penicillin, and 100 µg/mL streptomycin sulfate. […] The cells were sub-cultured using trypsin/EDTA solution, counted with a hemocytometer, and plated on 96-well plates (5000 cells/well), allowing them to form a semi-confluent monolayer overnight. […] DMSO (100 µL/well) was then added to dissolve the formazan crystals with shaking for 10 min, after which the absorb absorbance was read at 590 nm against no-cell blanks using a FLuo Star Optima microplate reader (BMG technologies, Ortenberg, Germany). Cell proliferation was calculated by comparing the OD values of the DMSO control wells with those of the samples, represented as % proliferation relative to the control.

HCT-116 = experiment: MTT antiproliferative assay, HCT-116 (normoxia and CoCl2-induced hypoxia); assay type: cell-based, human; details: HCT-116; for IC50: Homo sapiens, MTT, 72 h
Method: as §2

A549 = experiment: MTT antiproliferative assay, A549; assay type: cell-based; details: Homo sapiens, normoxic conditions, 72 h
Method: The human triple-negative breast cancer cell line (MDA-MB-231), colon cancer cell line (HCT-116), and lung cancer cell line (A549) used in this study were obtained from the American Type Culture Collection (ATCC). These cell lines were cultured as monolayers in Dulbecco’s Modified Eagle’s Medium (DMEM) supplemented with 10% FBS, 2 mM l-glutamine, 100 U/mL penicillin, and 100 µg/mL streptomycin sulfate. […] The cells were sub-cultured using trypsin/EDTA solution, counted with a hemocytometer, and plated on 96-well plates (5000 cells/well), allowing them to form a semi-confluent monolayer overnight. […]. DMSO (100 µL/well) was then added to dissolve the formazan crystals with shaking for 10 min, after which the absorb absorbance was read at 590 nm against no-cell blanks using a FLuo Star Optima microplate reader (BMG technologies, Ortenberg, Germany). Cell proliferation was calculated by comparing the OD values of the DMSO control wells with those of the samples, represented as % proliferation relative to the control.

hCA I = details: stopped-flow CO2 hydrase assay, mean of three assays; cited from earlier work
hCA II = details: stopped-flow CO2 hydrase assay, mean of three assays; cited from earlier work
hCA IX [6] = details: stopped-flow CO2 hydrase assay, mean of three assays; cited from earlier work
hCA XII [7] = details: stopped-flow CO2 hydrase assay, mean of three assays; cited from earlier work
hCA IV [8] = details: stopped-flow CO2 hydrase assay, mean of three assays; cited from earlier work
[9] = chemically induced hypoxia with CoCl2·6H2O, read-out: IC50 HCT-116 (Hypoxia)
[10] = normoxic conditions, read-out: IC50 HCT-116 (Normoxia)

SMILES	H2S release in phosphate buffer [1]	H2S release half-life t/2 [2] [min]	Time of peak H2S release [2] [min]	hCA II/hCA IV selectivity ratio (hCA IV [3])	hCA II/hCA IX selectivity ratio (hCA IX [4])	hCA II/hCA XII selectivity ratio (hCA XII [5])	IC50 (MDA-MB-231) [µM]	IC50 Normoxia / IC50 Hypoxia (HCT-116)	IC50 (HCT-116; [9]) [µM]	IC50 (HCT-116; [10]) [µM]	IC50 (A549) [µM]	Ki (hCA I) [µM]	Ki (hCA II) [µM]	Ki (hCA IX [6]) [µM]	Ki (hCA XII [7]) [µM]	Ki (hCA IV [8]) [µM]
O=C(O)c1ccc(-c2cssc2=S)cc1 [Compound 3]	minimal H2S release	3.1	20	–	–	–	–	–	–	–	–	–	–	–	–	–
NS(=O)(=O)c1ccc(CCN(Cc2ccc(Br)cc2)C(=O)c2ccc(-c3cssc3=S)cc2)cc1 [Compound 22]	–	–	–	104	192	284	6.31 ± 0.22	0.6	11.4 ± 0.22	6.62 ± 0.21	23.7 ± 1.61	7.7	3.66	0.0191	0.0129	–
CSc1ccc(CN(CCc2ccc(S(N)(=O)=O)cc2)C(=O)c2ccc(-c3cssc3=S)cc2)cc1 [Compound 29]	–	4.6	–	29.3	209	1148	3.25 ± 0.09	0.8	12.7 ± 0.25	10.1 ± 0.66	60.9 ± 2.17	7.21	9.65	0.0462	0.0084	0.404
